Measured values from patent US20150335055A1, “BEVERAGE PR[…] BASED ON PIMARICIN AND HEADSPACE GAS” (PEPSICO, INC., priority 2013, published 2015).

Key:
[1] = system: Zygosaccharomyces strains or Brettanomyces strains; test: 16 week spoilage trial in carbonated lemon-lime beverage (Sierra Mist, 3.6 volumes CO2, PET), Comparative Example 1; type: cell-based; settings: for samples spoiled: period of the test (14 weeks, 98 days), 25° C.
Protocol: […] This beverage is carbonated to 3.6 volumes CO2 in PET containers. Negative control containers received no inoculum. Positive control samples were inoculated with either Zygosaccharomyces strains (907, 28, Marion, HP, Mt. Dew, & SM Soiler) or Brettanomyces strains Dan, H2O2, Cherry 7-UP, 1601-1, and SY-05). […] All samples were then held at 25° C. for the duration of the study. […] 33% of the samples containing 15 ppm spoiled and 100% of samples containing 5 ppm pimaricin spoiled.

[2] = system: pooled inoculum of strains of Saccharomyces Brettanomyces and Zygosaccharomyces; test: 16 week spoilage trial in carbonated mock grape beverage (3.7 and 4.5 volumes CO2), Example 1; type: cell-based; settings: 1.1 ppm pimaricin, no cyclodextrin; for first note of spoilage: 25° C.; for incidence of spoilage (frequency, 1=100%): after 100 days
Protocol: A 16 week trial was conducted with a mock grape 12 Brix 2% grape juice mock glass “pony” 9.8 oz. bottle. Beverages were carbonated to 3.7 and 4.5 volumes. Five containers of each CO2 level were not inoculated and served as negative controls. Five containers of each CO2 level were inoculated with a pooled inoculum of strains of Saccharomyces Brettanomyces and Zygosaccharomyces such that an initial cell density of 100 organisms per milliliter was achieved. These samples served as positive controls. Half of the remaining containers received the same inoculum and were also dosed with pimaricin to a concentration of 1.1 mg 1^−1 (mg per liter or mg/L). The remaining containers were dosed with pimaricin in complex with β-cyclodextrin in a manner that yielded a final concentration of pimaricin of 0.8 ppm. All samples were then held at 25° C. for the duration of the study. During the course of the study, pimaricin concentration was established in samples employing UV-Visible spectroscopy.

[3] = short exposures; cited from earlier work

Question: For “(IR,3S,5R,7R,8E,12R,14E,16E,18E,20E,22R,24S,25R,26S)-{[3S,4S,5S,6R)-4-amino-3,5-dihydroxy-6-methyloxan-2-yl]oxy}-1,3,26 trihydroxy-12-methyl-10-oxo-6,11,28-trioxatricyclo[22.3.1.0^5,7]octacosa-8,14,16,18,20 pentaene-25-carboxylic acid [pimaricin]”, which “Onset of Spoilage” value ([1]; 5 ppm Pimaricin, week 0, day 0) is on record?
Answer: 0%

Question: And the “Onset of Spoilage” value ([1]; 5 ppm Pimaricin, week 1, day 7)?
Answer: 0%

Question: And the “Onset of Spoilage” value ([1]; 5 ppm Pimaricin, week 2, day 14)?
Answer: 0%

Question: And the “Onset of Spoilage” value ([1]; 5 ppm Pimaricin, week 3, day 21)?
Answer: 0%

Question: What about the “Onset of Spoilage” value ([1]; 5 ppm Pimaricin, week 4, day 28) of the same substance?
Answer: 0%

Question: And the “Onset of Spoilage” value ([1]; 5 ppm Pimaricin, week 5, day 35)?
Answer: 0%

Question: And the “Onset of Spoilage” value ([1]; 5 ppm Pimaricin, week 6, day 42)?
Answer: 0%

Question: And the “Onset of Spoilage” value ([1]; 5 ppm Pimaricin, week 7, day 49)?
Answer: 0%

Question: And the “Onset of Spoilage” value ([1]; 5 ppm Pimaricin, week 8, day 56)?
Answer: 0%

Question: And the “Onset of Spoilage” value ([1]; 5 ppm Pimaricin, week 9, day 63)?
Answer: 75%

Question: What about the “Onset of Spoilage” value ([1]; 5 ppm Pimaricin, week 10, day 70) of the same substance?
Answer: 75%

Question: What about the “Onset of Spoilage” value ([1]; 5 ppm Pimaricin, week 11, day 77) of the same substance?
Answer: 100%

Question: What about the “Onset of Spoilage” value ([1]; 5 ppm Pimaricin, week 12, day 84) of the same substance?
Answer: 100%

Question: What about the “Onset of Spoilage” value ([1]; 5 ppm Pimaricin, week 13, day 91) of the same substance?
Answer: 100%

Question: And the “Onset of Spoilage” value ([1]; 5 ppm Pimaricin, week 14, day 98)?
Answer: 100%

Question: And the “Onset of Spoilage” value ([1]; 5 ppm Pimaricin, week 15, day 105)?
Answer: 100%

Question: And the “Onset of Spoilage” value ([1]; 5 ppm Pimaricin, week 16, day 112)?
Answer: 100%

Question: What about the “Onset of Spoilage” value ([1]; 5 ppm Pimaricin, week 17, day 119) of the same substance?
Answer: 100%

Question: What about the “Onset of Spoilage” value ([1]; 5 ppm Pimaricin, week 18, day 126) of the same substance?
Answer: 100%

Question: What about the “Onset of Spoilage” value ([1]; 5 ppm Pimaricin, week 19, day 133) of the same substance?
Answer: 100%

Question: And the “Onset of Spoilage” value ([1]; 5 ppm Pimaricin, week 20, day 140)?
Answer: 100%

Question: What about the “Onset of Spoilage” value ([1]; 5 ppm Pimaricin, week 21, day 147) of the same substance?
Answer: 100%

Question: What about the “Onset of Spoilage” value ([1]; 5 ppm Pimaricin, week 22, day 154) of the same substance?
Answer: 100%

Question: And the “Onset of Spoilage” value ([1]; 5 ppm Pimaricin, week 23, day 161)?
Answer: 100%

Question: What about the “Onset of Spoilage” value ([1]; 5 ppm Pimaricin, week 24, day 168) of the same substance?
Answer: 100%

Question: And the samples spoiled ([1]; 5 ppm pimaricin)?
Answer: 100%

Question: What about the “Onset of Spoilage” value ([1]; 15 ppm Pimaricin, week 0, day 0) of the same substance?
Answer: 0%

Question: And the “Onset of Spoilage” value ([1]; 15 ppm Pimaricin, week 1, day 7)?
Answer: 0%

Question: What about the “Onset of Spoilage” value ([1]; 15 ppm Pimaricin, week 2, day 14) of the same substance?
Answer: 0%

Question: What about the “Onset of Spoilage” value ([1]; 15 ppm Pimaricin, week 3, day 21) of the same substance?
Answer: 0%

Question: What about the “Onset of Spoilage” value ([1]; 15 ppm Pimaricin, week 4, day 28) of the same substance?
Answer: 0%

Question: And the “Onset of Spoilage” value ([1]; 15 ppm Pimaricin, week 5, day 35)?
Answer: 0%

Question: And the “Onset of Spoilage” value ([1]; 15 ppm Pimaricin, week 6, day 42)?
Answer: 0%

Question: And the “Onset of Spoilage” value ([1]; 15 ppm Pimaricin, week 7, day 49)?
Answer: 0%

Question: And the “Onset of Spoilage” value ([1]; 15 ppm Pimaricin, week 8, day 56)?
Answer: 0%

Question: What about the “Onset of Spoilage” value ([1]; 15 ppm Pimaricin, week 9, day 63) of the same substance?
Answer: 0%

Question: What about the “Onset of Spoilage” value ([1]; 15 ppm Pimaricin, week 10, day 70) of the same substance?
Answer: 0%

Question: What about the “Onset of Spoilage” value ([1]; 15 ppm Pimaricin, week 11, day 77) of the same substance?
Answer: 33%

Question: What about the “Onset of Spoilage” value ([1]; 15 ppm Pimaricin, week 12, day 84) of the same substance?
Answer: 33%

Question: What about the “Onset of Spoilage” value ([1]; 15 ppm Pimaricin, week 13, day 91) of the same substance?
Answer: 33%

Question: And the “Onset of Spoilage” value ([1]; 15 ppm Pimaricin, week 14, day 98)?
Answer: 33%

Question: What about the “Onset of Spoilage” value ([1]; 15 ppm Pimaricin, week 15, day 105) of the same substance?
Answer: 33%

Question: And the “Onset of Spoilage” value ([1]; 15 ppm Pimaricin, week 16, day 112)?
Answer: 33%

Question: And the “Onset of Spoilage” value ([1]; 15 ppm Pimaricin, week 17, day 119)?
Answer: 33%

Question: And the “Onset of Spoilage” value ([1]; 15 ppm Pimaricin, week 18, day 126)?
Answer: 33%

Question: And the “Onset of Spoilage” value ([1]; 15 ppm Pimaricin, week 19, day 133)?
Answer: 33%

Question: What about the “Onset of Spoilage” value ([1]; 15 ppm Pimaricin, week 20, day 140) of the same substance?
Answer: 33%

Question: What about the “Onset of Spoilage” value ([1]; 15 ppm Pimaricin, week 21, day 147) of the same substance?
Answer: 33%

Question: What about the “Onset of Spoilage” value ([1]; 15 ppm Pimaricin, week 22, day 154) of the same substance?
Answer: 33%

Question: And the “Onset of Spoilage” value ([1]; 15 ppm Pimaricin, week 23, day 161)?
Answer: 33%

Question: And the “Onset of Spoilage” value ([1]; 15 ppm Pimaricin, week 24, day 168)?
Answer: 33%

Question: What about the samples spoiled ([1]; 15 ppm pimaricin) of the same substance?
Answer: 33%

Question: And the “Onset of Spoilage” value ([1]; 25 ppm Pimaricin, week 0, day 0)?
Answer: 0%

Question: And the “Onset of Spoilage” value ([1]; 25 ppm Pimaricin, week 1, day 7)?
Answer: 0%

Question: What about the “Onset of Spoilage” value ([1]; 25 ppm Pimaricin, week 2, day 14) of the same substance?
Answer: 0%

Question: What about the “Onset of Spoilage” value ([1]; 25 ppm Pimaricin, week 3, day 21) of the same substance?
Answer: 0%

Question: And the “Onset of Spoilage” value ([1]; 25 ppm Pimaricin, week 4, day 28)?
Answer: 0%

Question: What about the “Onset of Spoilage” value ([1]; 25 ppm Pimaricin, week 5, day 35) of the same substance?
Answer: 0%

Question: And the “Onset of Spoilage” value ([1]; 25 ppm Pimaricin, week 6, day 42)?
Answer: 0%

Question: And the “Onset of Spoilage” value ([1]; 25 ppm Pimaricin, week 7, day 49)?
Answer: 0%

Question: And the “Onset of Spoilage” value ([1]; 25 ppm Pimaricin, week 8, day 56)?
Answer: 0%

Question: And the “Onset of Spoilage” value ([1]; 25 ppm Pimaricin, week 9, day 63)?
Answer: 0%

Question: What about the “Onset of Spoilage” value ([1]; 25 ppm Pimaricin, week 10, day 70) of the same substance?
Answer: 0%

Question: And the “Onset of Spoilage” value ([1]; 25 ppm Pimaricin, week 11, day 77)?
Answer: 0%

Question: And the “Onset of Spoilage” value ([1]; 25 ppm Pimaricin, week 12, day 84)?
Answer: 0%

Question: What about the “Onset of Spoilage” value ([1]; 25 ppm Pimaricin, week 13, day 91) of the same substance?
Answer: 0%

Question: And the “Onset of Spoilage” value ([1]; 25 ppm Pimaricin, week 14, day 98)?
Answer: 0%

Question: And the “Onset of Spoilage” value ([1]; 25 ppm Pimaricin, week 15, day 105)?
Answer: 0%

Question: And the “Onset of Spoilage” value ([1]; 25 ppm Pimaricin, week 16, day 112)?
Answer: 0%

Question: What about the “Onset of Spoilage” value ([1]; 25 ppm Pimaricin, week 17, day 119) of the same substance?
Answer: 0%

Question: And the “Onset of Spoilage” value ([1]; 25 ppm Pimaricin, week 18, day 126)?
Answer: 0%

Question: What about the “Onset of Spoilage” value ([1]; 25 ppm Pimaricin, week 19, day 133) of the same substance?
Answer: 0%

Question: What about the “Onset of Spoilage” value ([1]; 25 ppm Pimaricin, week 20, day 140) of the same substance?
Answer: 0%

Question: And the “Onset of Spoilage” value ([1]; 25 ppm Pimaricin, week 21, day 147)?
Answer: 0%

Question: What about the “Onset of Spoilage” value ([1]; 25 ppm Pimaricin, week 22, day 154) of the same substance?
Answer: 0%

Question: And the “Onset of Spoilage” value ([1]; 25 ppm Pimaricin, week 23, day 161)?
Answer: 0%

Question: And the “Onset of Spoilage” value ([1]; 25 ppm Pimaricin, week 24, day 168)?
Answer: 0%

Question: And the samples spoiled ([1]; equivalent of 30 mg pimaricin per ml)?
Answer: None

Question: What about the “freedom from spoilage for duration of shelf-life” value ([1]; samples which contained 25 ppm pimaricin) of the same substance?
Answer: remain free of spoilage

Question: And the “first note of spoilage” value ([2]; 3.7 volumes CO2)?
Answer: 20 days

Question: What about the “first note of spoilage” value ([2]; 4.5 volumes CO2) of the same substance?
Answer: 20 days

Question: And the “incidence of spoilage (frequency, 1=100%)” value ([2]; 3.7 volumes CO2)?
Answer: 0.6

Question: What about the “incidence of spoilage (frequency, 1=100%)” value ([2]; 4.5 volumes CO2) of the same substance?
Answer: 0.6

Question: And the “temperature to which antimicrobial activity is stable” value [3]?
Answer: ≥ 120 ° F.
